# Experimental data as given in patent publication EP0997459A1, “Intermediates for preparing retroviral protease inhibiting compounds” (priority 1990, dated 1992).
# pIC50: −log10 of the molar value. Read-outs that look alike come from different tables or passages of the source.
# Tests used:
# HIV-13B = assay: Antiviral activity: inhibition of the cytopathic effect of HIV in MT4 cells (procedure of Pauwels et al.); format: cell-based; conditions: Human immunodeficiency virus 1, MT4
# Excerpt: (§1) The anti-HIV activity of the compounds of the invention can be determined in MT4 cells according to the procedure of Pauwels et. al. (J. Virol. Methods 1988, 20, 309).
# [1] = Cell viability (LC50) in MT4 cells in the antiviral test; format: cell-based; conditions: human, concentration at which 50% of the cells remain viable
# Excerpt: as §1
# HIV-1 protease = HIV-1 protease (Human immunodeficiency virus type 1 group M subtype B, UniProt P04585); assay: Fluorogenic assay for screening inhibitors of HIV protease; format: biochemical; conditions: read-out: Percent Inhibition
# Protocol: Fluorogenic Assay for Screening Inhibitors of HIV Protease
# The inhibitory potency of the compounds of the invention can be determined by the following method.
# A compound of the invention is dissolved in DMSO and a small aliquot further diluted with DMSO to 100 times the final concentration desired for testing. The reaction is carried out in a 6 X 50 mm tube in a total volume of 300 microliters. The final concentrations of the components in the reaction buffer are: 125 mM sodium acetate, 1 M sodium chloride, 5 mM dithiothreitol, 0.5 mg/ml bovine serum albumin, 1.3 µM fluorogenic substrate, 2% (v/v) dimethylsulfoxide, pH 4.5. After addition of inhibitor, the reaction mixture is placed in the fluorometer cell holder and incubated at 30°C for several minutes. The reaction is initiated by the addition of a small aliquot of cold HIV protease. The fluorescence intensity (excitation 340 nm, emmision 490 nM) is recorded as a function of time. The reaction rate is determined for the first six to eight minutes. The observed rate is directly proportional to the moles of substrate cleaved per unit time. The percent inhibition is 100 X (1 - (rate in presence of inhibitor)/(rate in absence of inhibitor)).
# [2] = Inhibitor Concentration 0.5 nanomolar
SMILES,pIC50 (HIV-13B),other results
"Cc1cccc(COC(=O)N[C@H](C(=O)N[C@@H](Cc2ccccc2)[C@@H](O)C[C@H](Cc2ccccc2)NC(=O)OCc2ccoc2)C(C)C)n1 [Example 322B, (2S,3S,5S)-2-(N-(N-(2-(6-Methylpyridinyl)methoxycarbonyl)valinyl)amino)-5-(N-((3-furyl)methoxycarbonyl)amino)-1,6-diphenyl-3-hydroxyhexane]",7.03 to 7.07,–
"O=C(N[C@@H](Cc1ccccc1)C[C@H](O)[C@H](Cc1ccccc1)NC(=O)OCc1ccno1)OCc1ccno1 [Example 334B, (2S,3S,5S)-2,5-Bis-(N-(isoxazol-5-ylmethoxycarbonyl)amino)-1,6-diphenyl-3-hydroxyhexane]",5.80 to 6.13,CC50 [1]: 91000 nM; inhibition at 0.001 µM (HIV-1 protease): 56%
"CC(C)[C@H](NC(=O)OCc1ccccn1)C(=O)N[C@@H](Cc1ccccc1)C[C@H](O)[C@H](Cc1ccccc1)NC(=O)OCc1cncnc1 [Example 321, (2S,3S,5S)-5-(N-(N-((2-Pyridinyl)methoxycarbonyl)valinyl)amino)-2-(N-((5-pyrimidinyl)methoxycarbonyl)amino)-1,6-diphenyl-3-hydroxyhexane]",6.72 to 6.85,inhibition at 0.0005 µM (HIV-1 protease): 64%
COc1ccc(COC(=O)N[C@H](C(=O)N[C@@H](Cc2ccccc2)C[C@H](O)[C@H](Cc2ccccc2)NC(=O)OCc2cccnc2)C(C)C)cn1 [Example 310],7.60 to 7.89,–
COc1ccc(COC(=O)N[C@H](C(=O)N[C@@H](Cc2ccccc2)C[C@H](O)[C@H](Cc2ccccc2)NC(=O)[C@@H](NC(=O)OCc2ccc(OC)nc2)C(C)C)C(C)C)cn1 [Example 315],8.30 to 8.52,inhibition at 0.0005 µM (HIV-1 protease): […]
"CC(C)[C@H](NC(=O)OCc1ccccn1)C(=O)N[C@@H](Cc1ccccc1)C[C@H](O)[C@H](Cc1ccccc1)NC(=O)OCc1cccnc1 [Example 40, (2S,3S,5S)-5-(N-(N-((2-Pyridinyl)methoxycarbonyl)valinyl)amino)-2-(N-((3-pyridinyl)methoxycarbonyl)amino)-1,6-diphenyl-3-hydroxyhexane]",6.26 to 6.64,CC50 [1]: 64000 nM; inhibition at 0.0005 µM (HIV-1 protease): 61%
"CC(C)[C@H](NC(=O)N(C)Cc1ccccn1)C(=O)N[C@@H](Cc1ccccc1)C[C@H](O)[C@H](Cc1ccccc1)NC(=O)OCc1cccnc1 [Example 38, (2S,3S,5S)-5-(N-(N-((N-Methyl-N-((2-pyridinyl)methyl)amino)carbonyl)valinyl)amino)-2-(N-((3-pyridinyl)methoxycarbonyl)amino)-1,6-diphenyl-3-hydroxyhexane]",6.21 to 6.26,–
"CC(C)[C@H](NC(=O)OCc1ccc2ccccc2n1)C(=O)N[C@@H](Cc1ccccc1)[C@@H](O)C[C@H](Cc1ccccc1)NC(=O)OCc1cccnc1 [Example 326, (2S,3S,5S)-2-(N-(N-((2-Ouinolinyl)methoxycarbonyl)valinyl)amino)-5-(N-((3-pyridinyl)methoxycarbonyl)amino)-1,6-diphenyl-3-hydroxyhexane]",7.07 to 7.28,CC50 [1]: 27000 nM; inhibition at 0.0005 µM (HIV-1 protease): 66%
Cc1cncc(CN(C)C(=O)N[C@H](C(=O)N[C@@H](Cc2ccccc2)C[C@H](O)[C@H](Cc2ccccc2)NC(=O)OCc2cccnc2)C(C)C)c1 [Example 314],6.84 to 7.01,–
"COc1ccc(CN(C)C(=O)N[C@H](C(=O)N[C@@H](Cc2ccccc2)[C@@H](O)C[C@H](Cc2ccccc2)NC(=O)OCc2cccnc2)C(C)C)cn1 [Example 311, (2S,3S,5S)-2-(N-(N-((N-Methyl-N-((6-methoxy-3-pyridinyl)methyl)amino)carbonyl)valinyl)amino)-5-(N-((3-pyridinyl)methoxycarbonyl)amino)-1,6-diphenyl-3-hydroxyhexane]",7.17 to 7.24,–
CC[C@H](C)[C@H](NC(=O)N(C)Cc1ccccn1)C(=O)N[C@@H](Cc1ccccc1)C[C@H](O)[C@H](Cc1ccccc1)NC(=O)OCc1cccnc1 [Example 171],6.26 to 6.42,inhibition at 0.0005 µM (HIV-1 protease; [2]): 62%
"CC(C)[C@H](NC(=O)N(C)Cc1ccccn1)C(=O)N[C@@H](Cc1ccccc1)[C@@H](O)C[C@H](Cc1ccccc1)NC(=O)OCc1cccnc1 [Example 37C, (2S,3S,5S)-2-(N-(N-((N-Methyl-N-((2-pyridinyl)-methyl)amino)carbonyl)valinyl)amino)-5-(N-((3-pyridinyl)methoxycarbonyl)amino)-1,6-diphenyl-3-hydroxyhexane]",5.84 to 6.08,inhibition at 0.001 µM (HIV-1 protease): 61%
O=C(N[C@@H](Cc1ccccc1)C[C@H](O)[C@H](Cc1ccccc1)NC(=O)OCc1cccnc1)OCc1cccnc1 [Example 174],6.64 to 6.85,inhibition at 0.0005 µM (HIV-1 protease; [2]): 51%
Cc1cccc(CN(C)C(=O)N[C@H](C(=O)N[C@@H](Cc2ccccc2)C[C@H](O)[C@H](Cc2ccccc2)NC(=O)OCc2cccnc2)C(C)C)n1 [Example 298],6.54 to 6.66,–
COc1ccc(CN(C)C(=O)N[C@H](C(=O)N[C@@H](Cc2ccccc2)C[C@H](O)[C@H](Cc2ccccc2)NC(=O)OCc2cccnc2)C(C)C)cn1 [Example 312],7.11 to 7.24,–
Cc1cnc(COC(=O)N[C@H](C(=O)N[C@@H](Cc2ccccc2)[C@@H](O)C[C@H](Cc2ccccc2)NC(=O)OCc2cccnc2)C(C)C)cn1 [Example 307],6.59 to 6.80,–
"CC(C)[C@H](NC(=O)OCc1ccccn1)C(=O)N[C@@H](Cc1ccccc1)[C@@H](O)C[C@H](Cc1ccccc1)NC(=O)OCc1cncnc1 [Example 319, (2S,3S,5S)-2-(N-(N-((2-Pyridinyl)methoxycarbonyl)valinyl)amino)-5-(N-((5-pyrimidinyl)methoxycarbonyl)amino)-1,6-diphenyl-3-hydroxyhexane]",6.54 to 6.68,–
Cc1cnc(COC(=O)N[C@H](C(=O)N[C@@H](Cc2ccccc2)C[C@H](O)[C@H](Cc2ccccc2)NC(=O)OCc2cccnc2)C(C)C)cn1 [Example 308],6.91 to 7.11,–
"CC(C)[C@H](NC(=O)N(C)Cc1ccccn1)C(=O)N[C@@H](Cc1ccccc1)C[C@H](O)[C@H](Cc1ccccc1)NC(=O)OCc1cncnc1 [Example 320, (2S,3S,5S)-5-(N-(N-((N-Methyl-N-((2-pyridinyl)methyl)amino)carbonyl)valinyl)amino)-2-(N-((5-pyrimidinyl)methoxycarbonyl)amino)-1,6-diphenyl-3-hydroxyhexane]",6.30 to 6.40,–
"Cc1cncc(CN(C)C(=O)N[C@H](C(=O)N[C@@H](Cc2ccccc2)[C@@H](O)C[C@H](Cc2ccccc2)NC(=O)OCc2cccnc2)C(C)C)c1 [Example 313, (2S,3S,5S)-2-(N-(N-((N-Methyl-N-((5-methyl-3-pyridinyl)methyl)amino)carbonyl)valinyl)amino)-5-(N-((3-pyridinyl)methoxycarbonyl)amino)-1,6-diphenyl-3-hydroxyhexane]",6.30 to 6.34,–
"Cc1cccc(CN(C)C(=O)N[C@H](C(=O)N[C@@H](Cc2ccccc2)[C@@H](O)C[C@H](Cc2ccccc2)NC(=O)OCc2cccnc2)C(C)C)n1 [Example 297, (2S,3S-5S)-2-(N-(N-((N-Methyl-N-((6-methyl-2-pyridinyl)methyl)amino)carbonyl)valinyl)amino)-5-(N-((3-pyridinyl)-methoxycarbonyl)amino)-1,6-diphenyl-3-hydroxyhexane]",6.46 to 6.51,–
"Cc1cccc(COC(=O)N[C@H](C(=O)N[C@@H](Cc2ccccc2)C[C@H](O)[C@H](Cc2ccccc2)NC(=O)OCc2cccnc2)C(C)C)n1 [Example 290, (2S,3S,5S)-2-(N-[(pyridin-3-yl)methoxycarbonyl]amino)-5-(N-[(6-methylpyridin-2-yl)methoxycarbonyl-valyl]amino)-1,6-diphenyl-3-hydroxyhexane]",7.12 to 7.59,–
Cc1cccc(COC(=O)N[C@H](C(=O)N[C@@H](Cc2ccccc2)C(=O)C(F)(F)[C@H](Cc2ccccc2)NC(=O)[C@@H](NC(=O)OCc2cccc(C)n2)C(C)C)C(C)C)n1 [Example 306],7.72 to 8.15,inhibition at 0.0005 µM (HIV-1 protease; [2]): 88%
"CC(C)[C@H](NC(=O)OCc1ccc2ccccc2n1)C(=O)N[C@@H](Cc1ccccc1)C[C@H](O)[C@H](Cc1ccccc1)NC(=O)OCc1cccnc1 [Example 327, (2S,3S,5S)-5-(N-(N-((2-Ouinolinyl)methoxycarbonyl)valinyl)amino)-2-(N-((3-pyridinyl)methoxycarbonyl)amino)-1,6-diphenyl-3-hydroxyhexane]",7.19 to 7.47,CC50 [1]: 84000 nM; inhibition at 0.0005 µM (HIV-1 protease): 69%
"CC(C)[C@H](NC(=O)OCc1ccccn1)C(=O)N[C@@H](Cc1ccccc1)[C@@H](O)C[C@H](Cc1ccccc1)NC(=O)OCc1cccnc1 [Example 39, (2S,3S,5S)-2-(N-(N-((2-Pyridinyl)methoxycarbonyl)valinyl)amino)-5-(N-((3-pyridinyl)methoxycarbonyl)amino)-1,6-diphenyl-3-hydroxyhexane]",6.60 to 6.89,–
Cc1cccc(COC(=O)N[C@H](C(=O)N[C@@H](Cc2ccccc2)[C@@H](O)C(F)(F)[C@H](Cc2ccccc2)NC(=O)[C@@H](NC(=O)OCc2cccc(C)n2)C(C)C)C(C)C)n1 [Example 305],7.77 to 8.30,inhibition at 0.0005 µM (HIV-1 protease; [2]): 91%
